Source: US11352637B2, “Methods and compositions for herbicide tolerance in plants” (MONSANTO TECHNOLOGY LLC, priority 2017, dated 2022)

Assays:
[1] = tested on: KsIAA16S in combination with KsAFB6; test: Yeast two-hybrid (Y2H) assay: KsIAA16S binding with KsAFB6 in presence of auxin; set-up: species or system Kochia scoparia; conditions: allele KsIAA16S; auxin 500 μM; yeast colony growth
Description: (§1) Yeast two-hybrid (Y2H) studies were conducted using the Matchmaker® Gold Yeast Two-Hybrid System: vectors, transformation protocols and yeast strains (Clonetech Laboratories, Inc.). The coding sequences for the KsIAA16R (SEQ ID NO: 220), KsIAA16S (SEQ ID NO: 218), KsTIR1 (SEQ ID NO: 285), KsAFB6 (SEQ ID NO: 287), KsAFB2 (SEQ ID NO: 289), and KsAFB5 (SEQ ID NO: 291) were PCR amplified using primers specified in Table 2.
(§2) PCR products were gel purified and recombined into NdeI/NotI digested pGADT7 or pGBKT7 vectors using the In-Fusion® cloning system (Clonetech Laboratories, Inc.). The pGBKT7 vector contained the GAL4 DNA binding domain, rendering the fusions as the “bait,” whereas the “prey” were the fusions containing the pGADT7 vector, which contained the GAL4 activation domain. All vectors were first sequence verified and then the listed vector combinations were co-transformed into the yeast strain, Y2HGold. […] Transformants were plated on SC-Trp-Leu plates to select for those containing both plasmids. Four healthy colonies were selected at random and resuspended into 300 μL of 0.1% agar in water. Five μL of this dilution was replica spotted onto each plate. Plates were incubated at 30° C. for 3 days prior to evaluation of colony growth. […]

[2] = tested on: KsIAA16R in combination with KsAFB6; test: Yeast two-hybrid (Y2H) assay: KsIAA16R binding with KsAFB6 in presence of auxin; set-up: species or system Kochia scoparia; conditions: for Interaction between KsIAA16R and KsAFB6 in the presence of the auxin: at the concentrations tested
Description: as §1
(§3) PCR products were gel purified and recombined into NdeI/NotI digested pGADT7 or pGBKT7 vectors using the In-Fusion® cloning system (Clonetech Laboratories, Inc.). The pGBKT7 vector contained the GAL4 DNA binding domain, rendering the fusions as the “bait,” whereas the “prey” were the fusions containing the pGADT7 vector, which contained the GAL4 activation domain. All vectors were first sequence verified and then the listed vector combinations were co-transformed into the yeast strain, Y2HGold. […] Transformants were plated on SC-Trp-Leu plates to select for those containing both plasmids. Four healthy colonies were selected at random and resuspended into 300 μL of 0.1% agar in water. Five μL of this dilution was replica spotted onto each plate. Plates were incubated at 30° C. for 3 days prior to evaluation of colony growth.
(§4) This method enabled the study of the binding/interaction of the Kochia R and S alleles of KsIAA16 with each of the Kochia TIR/AFB homologs (KsTIR1 (SEQ ID NO: 285), and KsAFB6 (SEQ ID NO: 287)) in the absence or presence of 100 μM or 500 μM exogenous concentrations of IAA, NAA, dicamba, and 2,4-D, picloram, triclopyr, quinclorac, fluroxypyr or phenylacetic acid (PAA).

[3] = tested on: KsIAA16 (R and S alleles) with KsTIR1 and/or KsAFB6; test: Y2H assay, summary statements over the protein combinations tested; type: binding, Kochia scoparia; conditions: for Facilitation of interaction of KsIAA16R with KsTIR1 and/or KsAFB6: at the concentrations tested
Description: as §1, §3, §4

[4] = tested on: KsIAA16R in combination with KsTIR1; test: Yeast two-hybrid (Y2H) assay: KsIAA16R binding with KsTIR1 in presence of auxin; set-up: species or system Kochia scoparia; conditions: compared with KsIAA16S; concentration not given
Description: as §1, §2

[5] = tested on: seedlings of the R and S Kochia biotypes; test: Root elongation response of Kochia seedlings; type: in vivo, Kochia scoparia; conditions: for Root elongation inhibition of the R Kochia biotype: R biotype seedlings, FIG. 5
Description: The root elongation response of seedlings from the R and S Kochia biotypes was tested to determine if the R biotype response was consistent with the Y2H findings. For root elongation studies, plant nutrient media was used, with 0.5% sucrose. Seeds were surface sterilized in 30% bleach with 0.1% Triton-X100 for 10 to 30 minutes, then rinsed twice in sterile water and resuspended in 0.1% agar for plating. Root lengths were measured to the nearest millimeter, and the average root length of 12 individuals was calculated unless otherwise noted.

R and S Kochia biotypes = test: Greenhouse spray test for cross-resistance of Kochia R-biotype; type: in vivo, Kochia scoparia; conditions: all treatments, track sprayer, 10 to 15 cm tall plants
Source text: To elucidate whether the Kochia R-biotype is cross resistant to 2,4-D or fluroxypyr, greenhouse grown 10 to 15 cm tall Kochia plants were sprayed with either Dicamba at 0,140, 280, 560, 2240, 4480, 6720, 8960, or 17920 g a.e.ha^−1; 2,4-D at 0, 70, 140, 280, 560, 1120, 2240, 4480, 6720, 8960 g a.e.ha^−1 or fluroxypyr at 0, 17.5, 35, 70, 140, 280, 420, 560, 1120, 2240 g a.e.ha^−1 with a track sprayer. […]

| Compound | Ability to bind in combination with KsAFB6 [1] | Interaction between KsIAA16R and KsAFB6 in the presence of the auxin [2] | Facilitation of interaction of KsIAA16R with KsTIR1 and/or KsAFB6 [3] | Ability of KsIAA16R to interact with KsTIR1 in the presence of the auxin [4] | Root elongation inhibition of the R Kochia biotype [5] | Visible injury at 14 days after treatment (DAT) (R and S Kochia biotypes) | Y2H interaction in the presence of the auxin ([3]; any of the protein combinations tested) | Effect on root elongation ([5]; Kochia seedlings, biotype not stated) | Ability of KsIAA16R to interact with KsAFB6 in the presence of the auxin ([2]; only the higher concentration could facilitate binding) |
| --- | --- | --- | --- | --- | --- | --- | --- | --- | --- |
| Nc1c(Cl)c(Cl)nc(C(=O)O)c1Cl [Picloram, 4-amino-3,5,6-trichloro-2-pyridinecarboxylic acid] | observed to interact | not observed | cannot | – | – | – | – | – | – |
| O=C(O)COc1ccc(Cl)cc1Cl [2,4-D, 2,4-dichlorophenoxyacetic acid] | – | not observed | cannot | decreased ability to interact | resistant | observed | – | – | – |
| O=C(O)Cc1ccccc1 [PAA, phenylacetic acid] | – | – | – | – | – | – | No interaction | had an effect on root elongation | – |
| O=C(O)Cc1cccc2ccccc12 [NAA, 2-(1-naphthyl) acetic acid] | – | – | can facilitate some interaction | – | remained sensitive | – | – | – | reduced ability to interact |
